These results are taken from US20160074353A1, “USE OF PETROSELINIC ACID TO FIGHT AGAINST AESTHETIC DISORDERS OF THE BODY FIGURE” (L'OREAL, priority 2013, published 2016).

This assay relates to lipoxin A4. The experiment in a line: Synthesis/release of lipoxin A4 by stimulated (PMA/A23187 + DHA/EPA) mononuclear blood cells, LC-MS quantification, % modulation relative to the control. Format: cell-based. The settings on record: % modulation vs stimulated control. The procedure:
Mononuclear blood cells are cultured under 5% CO2 and at 37° C. in a serum-free medium for macrophages (SFM Macrophage; Invitrogen 12065074) for 24 hours.
After this step, the medium is replaced with the same fresh test medium also containing the active agents at the various doses for 30 minutes in the presence of the various products to be evaluated, as indicated in the table of results below. The inflammatory response was then triggered in the presence of phorbol myristate (0.05 μM) and calcium ionophore (1 μM) and of a lipid substrate mixture composed of docosahexaenoic acid (DHA—1 μg/mL) and eicosapentaenoic acid (EPA—1 μg/mL).
The supernatants were then collected after 2 hours of stimulation and frozen at −80° C. before preparation for analysis by mass spectrometry.
Experimental triplicates (three wells) were prepared per experimental condition. Into each culture plate was placed a control corresponding to cells stimulated with the PMA/A23187 mixture and/or with addition of the equimolar mixture of fatty acids.
The thawed supernatants were concentrated by solid-phase extraction (SPE) and taken up in methanol before spectrometric analysis. The analytical method used consists in separating the various analytes by high-pressure liquid chromatography as a function of their retention time and in quantifying them by mass spectrometry. […]

With Zinc gluconate, the “Level of lipoxin A4 production” value (zinc gluconate 0.005 mg/ml) is on record as −5%.

Regarding `NCCS(=O)(=O)O` [Taurine], for the setting “taurine 3.1 mg/ml”, the “Level of lipoxin A4 production” value is reported as “+38%”.
